Laboratory results taken from patent US12286435B2, “Compound having benzo seven-membered ring structure, preparation method therefor, and use thereof” (BIONNA (BEIJING) MEDICAL TECHNOLOGY CO., LTD., priority 2019, dated 2025).

Tests used:
BRD4 BD1 protein = BRD4 BD1 protein (Homo sapiens (Human), UniProt O60885); test: Fluorescence polarization binding affinity (Ki) with BRD4 BD1 protein; conditions: fluorescence polarization; Ki calculated from IC50
BRD4 BD2 protein = BRD4 BD2 protein (Homo sapiens (Human), UniProt O60885); test: Fluorescence polarization binding affinity (Ki) with BRD4 BD2 protein; conditions: fluorescence polarization; Ki calculated from IC50

Structure (SMILES)	Ki (BRD4 BD1 protein) [nM]	Ki (BRD4 BD2 protein) [nM]
Cc1cc(NC2CCn3nnc(C)c3-c3ccc(C4=CCNCC4)cc32)n(C)n1 (stereo not drawn) [BJ28, N-(1,3-dimethyl-1H-pyrazol-5-yl)-1-methyl-9-(1,2,3,6-tetrahydropyridin-4-yl)-6,7-dihydro-5H-benzo[c][1,2,3]triazolo[1,5-a]azepin-7-amine 2,2,2-trifluoroacetate]	1830	250
Cc1nnn2c1-c1ccc(C3=CCNCC3)cc1C(Nc1ccc(F)cc1)CC2 (stereo not drawn) [BJ122, N-(4-fluorophenyl)-1-methyl-9-(1,2,3,6-tetrahydropyridin-4-yl)-6,7-dihydro-5H-benzo[c][1,2,3]triazolo[1,5-a]azepin-7-amine 2,2,2-trifluoroacetate]	757	68.6
Cc1nnn2c1-c1ccc(C3=CCNC3)cc1C(Nc1cccc(Cl)c1)CC2 (stereo not drawn) [BJ179, N-(3-chlorophenyl)-9-(2,5-dihydro-1H-pyrrol-3-yl)-1-methyl-6,7-dihydro-5H-benzo[c][1,2,3]triazolo[1,5-a]azepin-7-amine 2,2,2-trifluoroacetate]	436	25.9
Cc1nnn2c1-c1ccc(C3=CCNC3)cc1C(Nc1cccc(O)c1)CC2 (stereo not drawn) [BJ183, 3-((9-(2,5-dihydro-1H-pyrrol-3-yl)-1-methyl-6,7-dihydro-5H-benzo[d][1,2,3]triazolo[1,5-a]azepin-7-yl)amino)phenol 2,2,2-trifluoroacetate]	939	45
Cc1nnn2c1-c1ccc(-c3cnn(C)c3)cc1C(Nc1cc(F)cc(Cl)c1)CC2 (stereo not drawn) [BJ193, N-(3-chloro-5-fluorophenyl)-1-methyl-9-(1-methyl-1H-pyrazol-4-yl)-6,7-dihydro-5H-benzo[c][1,2,3]triazolo[1,5-a]azepin-7-amine]	28.3	8.4
COc1ccc2c(c1)C(Nc1ccc(Cl)cc1)CCc1onc(C)c1-2 (stereo not drawn) [FA02, N-(4-chlorophenyl)-8-methoxy-1-methyl-5,6-dihydro-4H-benzo[6,7]cyclohepta[1,2-d]isoxazol-6-amine]	58.3	37.1
CCn1cc(-c2ccc3c(c2)C(Nc2ccc(Cl)cc2)CCc2onc(C)c2-3)cn1 (stereo not drawn) [LA93, N-(4-chlorophenyl)-1-methyl-8-(1-ethyl-1H-pyrazol-4-yl)-5,6-dihydro-4H-benzo[6,7]cyclohepta[1,2-d]isoxazol-6-amine]	76.3	46.7
COC(=O)c1ccccc1NC1CCn2nnc(C)c2-c2ccc(-c3cnn(C)c3)cc21 (stereo not drawn) [LB160, methyl 2-((1-methyl-9-(1-methyl-1H-pyrazol-4-yl)-6,7-dihydro-5H-benzo[c][1,2,3]triazolo[1,5-a]azepin-7-yl)amino)benzoate]	96.4	12.5
Cc1nnn2c1-c1ccc(C3=CCNCC3)cc1C(Nc1cccc(C#N)c1)CC2 (stereo not drawn) [LC75, 3-((1-methyl-9-(1,2,3,6-tetrahydropyridin-4-yl)-6,7-dihydro-5H-benzo[c][1,2,3]triazolo[1,5-a]azepin-7-yl)amino)benzonitrile 2,2,2-trifluoroacetate]	2290	116
Cc1nnn2c1-c1ccc(C3=CCNCC3)cc1C(Nc1ccccc1Cl)CC2 (stereo not drawn) [LC84, N-(2-chlorophenyl)-1-methyl-9-(1,2,3,6-tetrahydropyridin-4-yl)-6,7-dihydro-5H-benzo[c][1,2,3]triazolo[1,5-a]azepin-7-amine 2,2,2-trifluoroacetate]	845	37.8
Cc1nnn2c1-c1ccc(C3=CCNCC3)cc1C(Nc1cccc(CC(=O)O)c1)CC2 (stereo not drawn) [LC87, 2-(3-((1-methyl-9-(1,2,3,6-tetrahydropyridin-4-yl)-6,7-dihydro-5H-benzo[c][1,2,3]triazolo[1,5-a]azepin-7-yl)amino)phenyl) acetic acid]	> 20000	142
Cc1nnn2c1-c1ccc(-c3cnn(C)c3)cc1C(Nc1ccccc1CCN(C)C)CC2 (stereo not drawn) [LC99, N-(2-(2-(dimethylamino)ethyl)phenyl)-1-methyl-9-(1-methyl-1H-pyrazol-4-yl)-6,7-dihydro-5H-benzo[c][1,2,3]triazolo[1,5-a]azepin-7-amine]	38.4	12.9
Cc1nnn2c1-c1ccc(-c3cnn(C)c3)cc1C(Nc1cccc(CCN(C)C)c1)CC2 (stereo not drawn) [LC101, N-(3-(2-(dimethylamino)ethyl)phenyl)-1-methyl-9-(1-methyl-1H-pyrazol-4-yl)-6,7-dihydro-5H-benzo[c][1,2,3]triazolo[1,5-a]azepin-7-amine]	89	13.6
Cc1nnn2c1-c1ccc(C3=CCNCC3)cc1C(Nc1ccc(O)cc1)CC2 (stereo not drawn) [LC117, 4-((1-methyl-9-(1,2,3,6-tetrahydropyridin-4-yl)-6,7-dihydro-5H-benzo[c][1,2,3]triazolo[1,5-a]azepin-7-yl)amino)phenol 2,2,2-trifluoroacetate]	2370	116
Cc1nnn2c1-c1ccc(C3=CCNCC3)cc1C(Nc1ccccc1O)CC2 (stereo not drawn) [LC127, 2-((1-methyl-9-(1,2,3,6-tetrahydropyridin-4-yl)-6,7-dihydro-5H-benzo[c][1,2,3]triazolo[1,5-a]azepin-7-yl)amino)phenol 2,2,2-trifluoroacetate]	793	41.5
Cc1nnn2c1-c1ccc(C3=CCNCC3)cc1C(Nc1ccc(C#N)cc1)CC2 (stereo not drawn) [LC128, 4-((1-methyl-9-(1,2,3,6-tetrahydropyridin-4-yl)-6,7-dihydro-5H-benzo[c][1,2,3]triazolo[1,5-a]azepin-7-yl)amino)benzonitrile 2,2,2-trifluoroacetate]	467	56.2
CNC(=O)Cc1cccc(NC2CCn3nnc(C)c3-c3ccc(C4=CCNCC4)cc32)c1 (stereo not drawn) [LC131]	835	86.3
CNC(=O)Cc1ccccc1NC1CCn2nnc(C)c2-c2ccc(C3=CCNCC3)cc21 (stereo not drawn) [LC132]	724	55.9
Cc1nnn2c1-c1ccc(C3=CCNCC3)cc1C(Nc1ccc(OCCO)cc1)CC2 (stereo not drawn) [LC133, 2-(4-((1-methyl-9-(1,2,3,6-tetrahydropyridin-4-yl)-6,7-dihydro-5H-benzo[c][1,2,3]triazolo[1,5-a]azepin-7-yl)amino)phenoxy)ethan-1-ol 2,2,2-trifluoroacetate]	2190	207
Cc1nnn2c1-c1ccc(-c3cnn(C)c3)cc1C(Nc1ccccc1C#N)CC2 (stereo not drawn) [LC136, 2-((1-methyl-9-(1-methyl-1H-pyrazol-4-yl)-6,7-dihydro-5H-benzo[c][1,2,3]triazolo[1,5-a]azepin-7-yl)amino)benzonitrile]	49.7	8.83
COc1ccccc1NC1CCn2nnc(C)c2-c2ccc(C3=CCNCC3)cc21 (stereo not drawn) [LC158, N-(2-methoxyphenyl)-1-methyl-9-(1,2,3,6-tetrahydropyridin-4-yl)-6,7-dihydro-5H-benzo[c][1,2,3]triazolo[1,5-a]azepin-7-amine 2,2,2-trifluoroacetate]	859	41.6
COc1cccc(NC2CCn3nnc(C)c3-c3ccc(C4=CCNCC4)cc32)c1 (stereo not drawn) [LC159, N-(3-methoxyphenyl)-1-methyl-9-(1,2,3,6-tetrahydropyridin-4-yl)-6,7-dihydro-5H-benzo[c][1,2,3]triazolo[1,5-a]azepin-7-amine 2,2,2-trifluoroacetate]	2130	65.4
COc1ccc(NC2CCn3nnc(C)c3-c3ccc(C4=CCNCC4)cc32)cc1 (stereo not drawn) [LC160, N-(4-methoxyphenyl)-1-methyl-9-(1,2,3,6-tetrahydropyridin-4-yl)-6,7-dihydro-5H-benzo[c][1,2,3]triazolo[1,5-a]azepin-7-amine 2,2,2-trifluoroacetate]	2270	114
Cc1nnn2c1-c1ccc(-c3cnn(C)c3)cc1C(N(C=O)c1cccc(Cl)c1)CC2 (stereo not drawn) [LC174, N-(3-chlorophenyl)-N-(1-methyl-9-(1-methyl-1H-pyrazol-4-yl)-6,7-dihydro-5H-benzo[c][1,2,3]triazolo[1,5-a]azepin-7-yl)formamide]	949	623
Cc1nnn2c1-c1ccc(-c3cnn(C)c3)cc1C(Nc1c(F)cccc1Cl)CC2 (stereo not drawn) [LC185, N-(2-chloro-6-fluorophenyl)-1-methyl-9-(1-methyl-1H-pyrazol-4-yl)-6,7-dihydro-5H-benzo[c][1,2,3]triazolo[1,5-a]azepin-7-amine]	162	16.4
Cc1nnn2c1-c1ccc(-c3cnn(C)c3)cc1C(Nc1cccc(Cl)c1)CC2 (stereo not drawn) [LC186, N-(3-chlorophenyl)-1-methyl-9-(1-methyl-1H-pyrazol-4-yl)-6,7-dihydro-5H-benzo[c][1,2,3]triazolo[1,5-a]azepin-7-amine]	31.3	6.98
Cc1nnn2c1-c1ccc(C3=CCNCC3)cc1C(Nc1cccc(Cl)c1F)CC2 (stereo not drawn) [LC190, N-(3-chloro-2-fluorophenyl)-1-methyl-9-(1,2,3,6-tetrahydropyridin-4-yl)-6,7-dihydro-5H-benzo[c][1,2,3]triazolo[1,5-a]azepin-7-amine 2,2,2-trifluoroacetate]	592	60
Cc1nnn2c1-c1ccc(-c3cnn(C)c3)cc1C(Nc1ccccc1Cl)CC2 (stereo not drawn) [LC191, N-(2-chlorophenyl)-1-methyl-9-(1-methyl-1H-pyrazol-4-yl)-6,7-dihydro-5H-benzo[c][1,2,3]triazolo[1,5-a]azepin-7-amine]	51.8	11.2
Cc1nnn2c1-c1ccc(C3=CCNCC3)cc1C(Nc1ccc(F)c(Cl)c1)CC2 (stereo not drawn) [LC192, N-(3-chloro-4-fluorophenyl)-1-methyl-9-(1,2,3,6-tetrahydropyridin-4-yl)-6,7-dihydro-5H-benzo[c][1,2,3]triazolo[1,5-a]azepin-7-amine 2,2,2-trifluoroacetate]	819	56.6
Cc1nnn2c1-c1ccc(C3=CCNCC3)cc1C(N(C=O)c1cccc(Cl)c1)CC2 (stereo not drawn) [LC193, N-(3-chlorophenyl)-N-(1-methyl-9-(1,2,3,6-tetrahydropyridin-4-yl)-6,7-dihydro-5H-benzo[c][1,2,3]triazolo[1,5-a]azepin-7-yl)formamide 2,2,2-trifluoroacetate]	> 4000	698
